Measurements from US8518882B2, “Methods and compositions for ameliorating or inhibiting decline in memory or intelligence or improving same” (priority 1998, dated 2013).

Legend:
[1] = system: acetylcholine release from neurons in the corpus striatum; assay: Basal acetylcholine release in corpus striatum of rats on dietary UMP; assay type: in vivo
neurofilament-70 (NF-70) = assay: Western blot of NF-70 in striatum of aged rats on UMP diet; assay type: in vivo
Experimental: (§1) Data were represented according to UMP treatment of six to sixteen measurements each group (means±S.E.M.). One-way ANOVA with Turkey's HSD post hoc tests were used to compare the difference among the treatments the Newman-Keuls multiple range test was used for the data in FIG. 13.
(§2) Striatal tissues were placed in Eppendorf tubes containing 200 μl lysis buffer (60 mM Tris-HCl, 4% SDS, 20% glycerol, 1 mM dithiothreitol, 1 mM AEBSF, 8 μM aprotinin, 500 μM bestatin, 15 μM E64, 200 μM leupeptin, 10 μM pepstatin A). The samples were sonicated, boiled (10 min), and centrifuged (14,000 g for 1 min at room temperature) The supernatant fluid was transferred to a clean tube, and total protein content was determined using the Bicinchoninic Acid assay (Sigma, St. Louis, Mo.).
(§3) Equal amounts of protein (40 μg protein/lane) were loaded for sodium dodecyl sulfate-polyacrylamide gel electrophoresis (4-15% SDS PAGE; Bio-Rad, Hercules, Calif.). Prior to gel electrophoresis, bromphenol blue solution (0.07%) was added to each sample. Proteins were separated, transferred onto polyvinylidene difluoride (PVDF) membranes (Immobilon-P, Millipore), and blocked with 5% bovine serum albumin (Tris-buffered saline/0.15% Tween 20) for 1 h. After 3 10 min rinses in Tris-buffered saline (TBST), blots were incubated in TBST with various antibodies against the proteins of interest, including NF-70, NF-M (1: 2000, 1: 5000, respectively; Calbiochem, La Jolla, Calif.) at 4° C. overnight on an orbital shaker. […] Films were digitized using a Supervista S-12 scanner with a transparency adapter (UMAX Technologies, Freemont, Calif.). Analysis was performed using the public domain NIH Image program (NIH V.1.61).

neurofilament-M (NF-M) = assay: Western blot of NF-M in striatum of aged rats on UMP diet; assay type: in vivo
Experimental: as §1, §2, §3

[2] = Body weight of aged rats on UMP diet; conditions: 2.5% UMP·2Na+ diet, 0-6 weeks
From the text: Male middle aged Fischer 344 rats, 22-24 months old at the time of doing microdialysis, were obtained from National Institute on Aging (Harlan Sprague-Dawley, Indianapolis, Ind.). Rats were housed individually under standard husbandry conditions and exposed to 12 hr light/dark cycle with food and water provided ad libitum.
Rats were acclimated to the animal facility for more than 7 days before fed a control laboratory diet (Teklad Global 16% protein rodent diet, TD.00217, Harlan Telclad, Madison, Wis.), or this diet fortified with UMP·2Na^+ (2.5%, TD.03398, UMP·2Na^+; Numico Research, the Netherlands) for 6 weeks.
Rats were not fed with the research diet until at least 7 days later after their arrival. They were weighed at the time of beginning feeding (t=0), as well as 1, 2, 4, 6 weeks later. At time 0, rats were randomly assigned into two groups.

EC and IC rats = assay: Hidden platform water maze task and probe test in EC and IC rats; assay type: in vivo, Sprague Dawley rats; conditions: 0.1% UMP diet
Experimental: Behavioral training was carried out between 10:00 AM-2:00 PM, in a blinded manner. […] A different starting point was used on each trial such that each starting point was used once each day. […] After mounting the platform, rats remained on the platform for 20 seconds. Following each trial, animals were removed from the maze and placed in a holding cage for a 30 second inter-trial interval (ITI). The latency to mount the escape platform was used as a measure of task acquisition.
For this, the platform was removed and the swim path and time spent searching in the quadrant of the pool that previously contained the platform were measured over 60 s. This provides a measurement for the retention of spatial memory and indicates whether a spatial strategy was used during hidden platform training.

O=c1ccn([C@@H]2O[C@H](COP(=O)([O-])[O-])[C@@H](O)[C@H]2O)c(=O)[nH]1.[Na+].[Na+] [UMP, uridine-5′-monophosphate disodium]
Basal release of acetylcholine in corpus striatum [1]: increase the basal release | NF-70 level compared to control group (neurofilament-70 (NF-70); UMP diet 1 week): did not increase | NF-70 level, of control values (neurofilament-70 (NF-70); UMP diet 6 weeks, striatum, p<0.05): 182±25% | NF-70 level in striatum, of control values (second statement) (neurofilament-70 (NF-70); feeding time not given): 204±36% | NF-M level compared to control group (neurofilament-M (NF-M); UMP diet 1 week): did not increase | NF-M level, of control values (neurofilament-M (NF-M); UMP diet 6 weeks, striatum, p<0.01): 221±34% | NF-M level in striatum, of control values (second statement) (neurofilament-M (NF-M); feeding time not given): 221±34% | Body weight [2]: neither UMP-diet (vs. control) nor UMP time interaction affected body weight | Rate of acquisition of hidden platform task (EC and IC rats; EC rats, vs EC-CONT, P<0.09): acquired the task at a faster rate | Rate of acquisition of hidden platform task (EC and IC rats; IC rats, vs IC-CONT, P<0.05): acquired the task at a significantly faster rate | Time in correct quadrant, 60 s probe test (EC and IC rats; IC rats, vs IC-CONT, p<0.01): spent significantly more time in the correct quadrant
